Data as given in patent US20240229097A1, “SYSTEM, METHOD, DEVICE AND MANUFACTURING METHOD THEREOF FOR DETECTING CELLULAR MECHANICAL FORCE” (Ruixin (Fuzhou) Technology Co., Ltd., priority 2021, published 2024).

What was measured:
Assay type in all cases: cell-based
[1] = system: non-small cell lung cancer cells A549; test: MTT assay of cell viability of A549 cells treated with 5FU
From the text: (§1) Specifically, this embodiment cultures non-small cell lung cancer cells A549 on multiple device for detecting cellular mechanical force, treats them with different doses of the cell proliferation inhibitor 5-fluorouracil (5-FU), and monitors cellular mechanical forces at different time points using the system for detecting cellular mechanical force or the method described in the tenth to twelfth embodiments or the fourteenth embodiment. Cell proliferation and cytotoxicity are monitored at different time points using the CCK-8 assay kit, with cell viability measured by the MTT assay serving as a control, generating the data for FIGS. 16,b and c.

[2] = system: non-small cell lung cancer cells A549; test: Cell viability reflected by cellular mechanical force (micropillar light reflection device), A549 cells treated with 5FU
From the text: This embodiment specifically provides using the cellular mechanical force information obtained from any of the system for detecting cellular mechanical force described in the tenth to twelfth embodiments or the cellular mechanical force detection method described in the fourteenth embodiment to monitor cell viability.
as §1

[3] = system: breast cancer cells MCF-7 multicellular aggregates; test: 5-Fu drug sensitivity test on tumor cell multicellular aggregates on the cellular mechanical force detection device; conditions: MCF-7 aggregates, 200 μM 5-Fu, cultured for one day, FIG. 18
Procedure: More specifically, this embodiment provides a method for culturing a tumor cell multicellular aggregate on the device for detecting cellular mechanical force for drug sensitivity test, including the steps:
S1, Generation of tumor cell multicellular aggregates: FN 50 μg/mL is applied to the top of the micropillar of the device for detecting cellular mechanical force and sterilized with UV for 30 minutes; breast cancer cells MCF-7 (approximately 1×10^5 to 9×10^5 cells) are seeded on the top surface of the micropillars (number of micropillars is not limited) of the device for detecting cellular mechanical force, which is then immersed in 3dGRO™ Spheroid Medium (S3077) for more than 3 days to induce the formation of tumor cell multicellular aggregates.
S2, Applying the generated tumor cell multicellular aggregates to a 5-Fu drug sensitivity test: 200 μM of 5-Fu is added to the tumor cell multicellular aggregates and cultured for one day; in the test, before the addition of 5-Fu and one day of culture after the addition of 5-Fu on the device for detecting cellular mechanical force (with tumor cell multicellular aggregates, including the culture medium), light reflection signals are captured by the light signal detection device (CCD sensor) and cellular mechanical force distribution images are obtained using the light signal analysis device (ImageJ), as shown in FIG. 18. […]

[4] = different doses of 5FU, FIGS. 16,b and c

O=c1[nH]cc(F)c(=O)[nH]1 [5FU, 5-fluorouracil]
cell viability measured by the conventional MTT assay [1, 4]: dose-dependent decline
change in cell viability by MTT assay ([1]; within 12 hours of 5FU treatment, FIG. 16,c): no significant change
time at which a significant decrease trend of cellular mechanical force is observed ([2]; 0.5 μM treatment dose): 6 h
time at which a significant decrease trend of cellular mechanical force is observed ([2]; 1 μM treatment dose): 3 h
cellular viability reflected by mechanical force compared to the control group (DMSO) ([2]; different doses of 5FU for 24 hours, relative to MTT assay, FIG. 16,b): greater reduction
cell viability reflected by cellular mechanical forces [2, 4]: dose-dependent decline
cell viability of tumor cell multicellular aggregates [3]: reduced
reflection signals of tumor cell multicellular aggregates [3]: noticeably weaken
